Tests used:
[1] = system: Pseudomonas aeruginosa CDC 0248; test: MBC/MFC determination (Example 32); type: cell-based; details: P. aeruginosa CDC 0248; plated after 18 to 20 hours incubation; two values given
Protocol: (§1) 10 μL of liquid from each test condition was plated on the appropriate agar media for each test strain. Except for C. jejuni, all other strains were plated for MBC/MFC after 18 to 20 hours incubation, or until growth in growth control wells were visually observed. MBC for C. jejuni was plated 48 hours after incubation of the 96-well plate. Once the liquid from the 96-well plate has been allowed to air dry in a biosafety cabinet, the agar plates were incubated under the appropriate conditions and colony formation was assessed. MBC/MFC is defined as the lowest concentration of a compound in which no colonies were recovered.

[2] = system: Pseudomonas aeruginosa ATCC 27853; test: MBC/MFC determination (Example 32); type: cell-based; details: P. aeruginosa ATCC 27853; plated after 18 to 20 hours incubation; two values given
Protocol: as §1

[3] = system: Pseudomonas aeruginosa Eurofins 1674623; test: MBC/MFC determination (Example 32); type: cell-based; details: P. aeruginosa Eurofins 1674623; plated after 18 to 20 hours incubation; two values given
Protocol: as §1

[4] = system: Candida albicans ATCC 90028; test: MBC/MFC determination (Example 32); type: cell-based; details: C. albicans ATCC 90028; plated after 18 to 20 hours incubation or until growth in control wells; two values given
Protocol: as §1

[5] = system: Acinetobacter baumannii Eurofins 1674627; test: MBC/MFC determination (Example 32); type: cell-based; details: A. baumannii Eurofins 1674627; plated after 18 to 20 hours incubation; two values given
Protocol: as §1

Candida auris CDC 0385 [6] = test: MBC/MFC determination (Example 32); type: cell-based; details: C. auris CDC 0385; plated after 18 to 20 hours incubation or until growth in control wells; two values given
Protocol: as §1

[7] = system: Campylobacter jejuni CDC 0413; test: MBC/MFC determination (Example 32); type: cell-based; details: C. jejuni CDC 0413; plated 48 hours after incubation; two values given
Protocol: as §1

[8] = system: Streptococcus pyogenes Eurofins 2065755; test: MBC/MFC determination (Example 32); type: cell-based; details: S. pyogenes Eurofins 2065755; plated after 18 to 20 hours incubation; two values given
Protocol: as §1

Aspergillus niger = test: Disk diffusion susceptibility test; type: cell-based
Fusarium oxysporum = test: Disk diffusion susceptibility test; type: cell-based
[9] = system: Candida albicans ATCC 90028; test: MIC microdilution assay (Example 32); type: cell-based; details: C. albicans ATCC 90028 (quality control); RPMI media; 35±2° C. 24 to 48 hours; two values given
Protocol: (§2) Strain IDs starting with “ATCC” were acquired from the American Type Culture Collection (Manassas, VA), strain IDs starting with “Eurofins” were acquired from Eurofins (Herndon, VA), while strain IDs starting with “CDC” were acquired from the Centers for Disease Control and Prevention (Atlanta, GA). All strains were maintained as −80° C. frozen glycerol stocks. S. aureus and P. aeruginosa were grown overnight on Tryptic Soy Agar (TSA) plates at 35±2° C., ambient atmosphere, while S. pyogenes was grown overnight on TSA+5% defibrinated sheep blood at 35±2° C., 5% CO2. C. jejuni was grown for 48 hours on TSA+5% defibrinated sheep blood at 35±2° C., in a microaerophilic environment generated by CampyGen sachet. All fungal species (i.e. C. albicans and C. auris) were grown overnight on Sabouraud Dextrose Agar (SDA) plates at 35±2° C., ambient atmosphere.
(§3) Test article Compound 1 (batch #7G30A9.203) was stored at 4° C. The antibiotic Tobramycin and antifungal Amphotericin B were used as quality control (QC) compounds for the MIC assay. Stock solutions of 3.2 mg/mL Tobramycin (Sigma-Aldrich, cat #T1783-500MG) and 3.2 mg/mL Amphotericin B (CP Lab Chemicals, cat #TOK-A007-1G) were prepared in sterile ultrapure water.
(§4) For bacteria strains, a few colonies of each strain were collected with a sterile swab and used to make a McFarland 0.5 standard solution (approximately 1×10^8 CFU/mL) in sterile PBS. The McFarland was then diluted 1:180 in Cation Adjusted Muller-Hinton Broth (CAMHB) for S. aureus and P. aeruginosa. S. pyogenes McFarland was diluted 1:180 in CAMHB+5% defibrinated sheep blood, while C. jejuni McFarland was diluted 1:180 in CAMHB+5% laked horse blood. 90 μL of this inoculum was combined with 10 μL of the 10× test article in a 96-well plate for a final concentration of 1×.
(§5) For the yeasts C. albicans and C. auris, a McFarland 0.5 standard solution in sterile PBS was similarly prepared (approximately 1×10^6 CFU/mL) and was subsequently diluted 1:180 in RPMI 1640 media buffered with 0.165 M MOPS at pH 7.0 (herein referred to as “RPMI media”). 90 μL of the Candida inoculum was combined with 10 μL of the 10× test article in a 96-well plate for a final concentration of 1×.
(§6) Except for C. jejuni, all bacterial-strain MIC 96-well plates were incubated at 35±2° C. for 18 to 20 hours, ambient atmosphere. C. jejuni was incubated at 35±2° C. for 48 hours, under microaerophilic condition. All Candida MIC 96-well plates were incubated at 35±2° C. for 24 to 48 hours, ambient atmosphere, until growth in control wells were observed. After incubation, the 96-well plates were examined visually and on a spectrophotometer at absorbance OD650. MIC is defined as the lowest concentration of a compound in which no visible growth is observed.

Candida auris CDC 0385 [10] = test: MIC microdilution assay (Example 32); type: cell-based; details: C. auris CDC 0385; RPMI media; 35±2° C. 24 to 48 hours; two values given
Protocol: as §2, §3, §4, §5, §6

Enterococcus faecalis = test: Disk diffusion susceptibility test; type: cell-based
[11] = system: Proteus mirabilis and Pseudomonas aeruginosa; test: Treatment of ocular infection in a dog; type: in vivo; details: male bull dog, 2% aqueous solution 3 times per day; for examination of the eyes: infection in both eyes
Protocol: A male bull dog presented with an infection in both eyes which was cultured and tested positive for Proteus mirabilis and Pseudomonas aeruginosa. The dog was administered a 2% aqueous solution of Compound 1 at a rate of 3 times per day for 7 days. […] On day 6, the dog was reexamined. […] To verify, a swab of the eye was taken and cultured. The culture was negative for both Proteus mirabilis and Pseudomonas aeruginosa.

[12] = system: Pseudomonas aeruginosa CDC 0248; test: MIC microdilution assay (Example 32); type: cell-based; details: P. aeruginosa CDC 0248; CAMHB; 35±2° C. 18 to 20 hours; two values given
Protocol: as §2, §3, §4, §6

[13] = system: Pseudomonas aeruginosa ATCC 27853; test: MIC microdilution assay (Example 32); type: cell-based; details: P. aeruginosa ATCC 27853 (quality control); CAMHB; 35±2° C. 18 to 20 hours; two values given
Protocol: as §2, §3, §4, §6

[14] = system: Pseudomonas aeruginosa Eurofins 1674623; test: MIC microdilution assay (Example 32); type: cell-based; details: P. aeruginosa Eurofins 1674623; CAMHB; 35±2° C. 18 to 20 hours; two values given
Protocol: as §2, §3, §4, §6

[15] = system: Streptococcus pyogenes Eurofins 2065755; test: MIC microdilution assay (Example 32); type: cell-based; details: S. pyogenes Eurofins 2065755; CAMHB+5% defibrinated sheep blood; 35±2° C. 18 to 20 hours; two values given
Protocol: as §2, §3, §4, §6

Mycoplasma pneumoniae = test: Disk diffusion susceptibility test; type: cell-based; details: repeated experiment, FIG. 2
Candida albicans = test: Disk diffusion susceptibility test; type: cell-based
Staphylococcus aureus = test: Disk diffusion susceptibility test; type: cell-based; details: repeated experiment, FIG. 2
[16] = 10 mg/mL, repeated experiment, FIG. 2
[17] = 100 mg/mL, repeated experiment, FIG. 2

CCCCCCCCCCCCCCCCCC[N+](C)(C)CCC[Si](OCC(CO)(CO)NCCS(=O)(=O)[O-])(OCC(CO)(CO)NCCS(=O)(=O)[O-])OCC(CO)(CO)NCCS(=O)(=O)O.[Cl-].[Na+].[Na+] [Compound 1]
1 µg/mL: MBC [4] | MIC [9] | MIC (Candida auris CDC 0385 [10])
8 µg/mL: MBC [8] | MIC [15]
no sign of infection: examination of the eyes ([11]; day 6)
64 µg/mL: MBC [5]
>64 µg/mL: MBC [1] | MBC [2] | MBC [3] | MIC [12] | MIC [13] | MIC [14]
negative: culture of eye swab for Proteus mirabilis and Pseudomonas aeruginosa ([11]; swab at day 6)
signs of reduced infection: examination of the eyes ([11]; day 2)
32 µg/mL: MBC [7]
complete inhibition: inhibition (zone of inhibition), disk diffusion (Aspergillus niger; [16]) | inhibition (zone of inhibition), disk diffusion (Aspergillus niger; [17]) | inhibition (zone of inhibition), disk diffusion (Aspergillus niger; 1% aqueous solution, FIG. 1) | inhibition (zone of inhibition), disk diffusion (Aspergillus niger; 2% aqueous solution, FIG. 1) | inhibition (zone of inhibition), disk diffusion (Fusarium oxysporum; [16]) | inhibition (zone of inhibition), disk diffusion (Fusarium oxysporum; [17]) | inhibition (zone of inhibition), disk diffusion (Fusarium oxysporum; 1% aqueous solution, FIG. 1) | inhibition (zone of inhibition), disk diffusion (Fusarium oxysporum; 2% aqueous solution, FIG. 1) | inhibition (zone of inhibition), disk diffusion (Enterococcus faecalis; 1 mg/mL, repeated experiment, FIG. 2) | inhibition (zone of inhibition), disk diffusion (Enterococcus faecalis; [16]) | inhibition (zone of inhibition), disk diffusion (Enterococcus faecalis; [17]) | inhibition (zone of inhibition), disk diffusion (Enterococcus faecalis; 1% aqueous solution, FIG. 1) | inhibition (zone of inhibition), disk diffusion (Enterococcus faecalis; 2% aqueous solution, FIG. 1) | inhibition (zone of inhibition), disk diffusion (Mycoplasma pneumoniae; 1 mg/mL) | inhibition (zone of inhibition), disk diffusion (Mycoplasma pneumoniae; 10 mg/mL) | inhibition (zone of inhibition), disk diffusion (Mycoplasma pneumoniae; 100 mg/mL) | inhibition (zone of inhibition), disk diffusion (Candida albicans; [16]) | inhibition (zone of inhibition), disk diffusion (Candida albicans; [17]) | inhibition (zone of inhibition), disk diffusion (Candida albicans; 1% aqueous solution, FIG. 1) | inhibition (zone of inhibition), disk diffusion (Candida albicans; 2% aqueous solution, FIG. 1) | inhibition (zone of inhibition), disk diffusion (Staphylococcus aureus; 1 mg/mL) | inhibition (zone of inhibition), disk diffusion (Staphylococcus aureus; 10 mg/mL) | inhibition (zone of inhibition), disk diffusion (Staphylococcus aureus; 100 mg/mL)
2 µg/mL: MBC (Candida auris CDC 0385 [6])

From patent US12264170B2, “Antimicrobial organosilanes” (TOPIKOS SCIENTIFIC, INC., priority 2019, dated 2025)
